Earlier results in patent publication US11737994B2, “Topical compositions for pain relief, manufacture and use” (priority 2014, dated 2023).

Details: in words

Question: For `CCCCCCCCC(=O)NCc1ccc(O)c(OC)c1` [Nonivamide, vanillylamide of n-nonanoic acid], which Heat stability is on record?
Answer: more heat-stable than capsaicin
